Data: patent US5208227A, “Method, compositions, and compounds for modulating brain excitability” (priority 1991, dated 1993)
Read-outs that look alike come from different tables or passages of the source.

Tests used:
[1] = target: T1, progesterone receptor (Rattus norvegicus, UniProt Q63449); experiment: [3H]R5020 binding to the progesterone receptor in rat uterus; settings: FIG. 5
T1 sequence (Q63449 1-923): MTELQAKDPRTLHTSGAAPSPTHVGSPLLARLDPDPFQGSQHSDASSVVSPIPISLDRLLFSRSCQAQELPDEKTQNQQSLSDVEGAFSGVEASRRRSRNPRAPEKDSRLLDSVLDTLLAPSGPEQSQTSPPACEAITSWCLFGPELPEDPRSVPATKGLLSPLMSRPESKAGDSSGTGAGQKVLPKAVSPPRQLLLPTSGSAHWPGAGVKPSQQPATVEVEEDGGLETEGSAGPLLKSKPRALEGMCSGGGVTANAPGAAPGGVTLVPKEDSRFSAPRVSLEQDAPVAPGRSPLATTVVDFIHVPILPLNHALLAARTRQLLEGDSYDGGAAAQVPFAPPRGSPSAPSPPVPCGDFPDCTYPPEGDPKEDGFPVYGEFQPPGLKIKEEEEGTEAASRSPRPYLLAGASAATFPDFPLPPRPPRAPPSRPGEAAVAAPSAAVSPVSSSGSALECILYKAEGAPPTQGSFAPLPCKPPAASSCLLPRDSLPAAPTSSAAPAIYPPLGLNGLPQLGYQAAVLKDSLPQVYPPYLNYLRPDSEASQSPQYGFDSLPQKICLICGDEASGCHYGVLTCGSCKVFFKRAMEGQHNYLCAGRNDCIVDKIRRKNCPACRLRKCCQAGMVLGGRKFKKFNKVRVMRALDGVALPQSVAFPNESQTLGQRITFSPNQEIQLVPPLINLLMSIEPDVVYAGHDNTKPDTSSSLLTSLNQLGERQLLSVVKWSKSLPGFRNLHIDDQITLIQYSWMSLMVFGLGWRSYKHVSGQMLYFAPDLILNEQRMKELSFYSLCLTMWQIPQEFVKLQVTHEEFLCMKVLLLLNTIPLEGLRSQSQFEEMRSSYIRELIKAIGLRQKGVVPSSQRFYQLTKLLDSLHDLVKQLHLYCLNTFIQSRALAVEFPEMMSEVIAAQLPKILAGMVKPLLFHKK
Text: The data plotted in FIG. 5 were obtained by performing assays in accordance with the procedures outlined above to determine the effect of progesterone metabolites and the progestin R5020 on the binding of [^3 H]R5020 to the progesterone receptor in rat uterus. All points on the plot of FIG. 5 represent the mean of triplicate determinations. The following compounds are those listed in FIG. 5: 5-alpha-pregnan-3-alpha-ol-20-one (DHP), 5-alpha-pregnan-3-alpha,21-diol-20-one (Th-DOC), and 5-beta-pregnane-3-alpha,20 diol (5 BETA).

[2] = test system: GABA/benzodiazepine receptor-chloride ionopore complex (GBR complex); experiment: modulation (inhibition) of [35S]TBPS binding; set-up: species or system rat (male Sprague-Dawley); MAXIMAL INHIBITION: unit not given here; settings: for MAXIMAL INHIBITION: [35S]TBPS binding; for MAXIMAL INHIBITION / CONTROL IC50 / IC50 / +5 μM GABA IC50: rat cerebral cortex; for CONTROL IC50 / IC50 / +5 μM GABA IC50: inhibition of 2 nM [35S]TBPS binding
Method: These procedures were performed as follows:
In these FIGS, (.circle.) represents control without bicuculline; represents 0.5 micromolar bicuculline; (.quadrature.) represents 1.0 micromolar bicuculline; represents 2.0 micromolar bicuculline; and (Δ) represents 3.0 micromolar bicuculline.

[3] = test system: picrotoxin-induced convulsions in mice; set-up: key: NP: no protection; settings: cited from earlier work
[4] = test system: maximal electroshock (tonic component) in mice; set-up: unit not given here; settings: literature data; cited from earlier work
[5] = test system: (+)bicuculline-induced seizures in mice; set-up: key: NP: no protection; settings: cited from earlier work
[6] = test system: metrazol-induced convulsions in mice; set-up: key: NP: no protection; settings: cited from earlier work
[7] = test system: mice; set-up: unit not given beside the values; settings: literature data; cited from earlier work
[8] = test system: strychnine-induced convulsions in mice; set-up: key to STR (strychnine) ED50: NP: no protection; settings: cited from earlier work
[9] = test system: GBR complex ([35S]TBPS site); experiment: dissociation kinetics of [35S]TBPS in cortical P2 homogenates; assay type: binding, rat
Method: An assay was performed to determine the effect of pentobarbital on the dissociation kinetics of [^35 S]TBPS in rat cerebral cortical membranes. This assay was performed in accordance with the procedures outlined above. […] Dissociation of bound [^35 S]TBPS was initiated by 2 micromolar TBPS in all cases.

[10] = test system: mice; settings: literature data; cited from earlier work
[11] = test system: premenstrual syndrome (PMS), PND, catamenial epilepsy patients; settings: cited from earlier work
[12] = read-out: +5 μM GABA IC50, +5 μM GABA
[13] = no added GABA (control), read-out: CONTROL IC50
[14] = chemical convulsant administered i.v., Worms et al.

In the case of `CC(O)[C@H]1CC[C@H]2[C@@H]3CC[C@@H]4C[C@H](O)CC[C@]4(C)[C@H]3CC[C@]12C` (stereo partly drawn) [5-beta-pregnane-3-alpha,20 diol (5 BETA), 5-beta-pregnane-3-alpha,20 diol], the “affinity for the progesterone receptor” value [1] is reported as “lack of affinity”.

For `CC(=O)[C@H]1CC[C@H]2[C@@H]3CC=C4C[C@@H](O)CC[C@]4(C)[C@H]3CC[C@]12C` [5-PREGNAN-3β-OL- 20-ONE (PREGNENOLONE), 5-PREGNAN-3β-OL- 20-ONE], the “MAXIMAL INHIBITION” value [2] was 30, the “CONTROL IC50” value ([2]; no added GABA (control)) was “INACTIVE” and the IC50 [2, 12] was greater than 100 µM.

With `C[C@]12CC[C@@H]3c4ccc(O)cc4CC[C@H]3[C@@H]1CC[C@@H]2O` [17β-ESTRADIOL] the “MAXIMAL INHIBITION” value [2] was 0, the “+5 μM GABA IC50” value ([2]; +5 μM GABA) was “INACTIVE” and the “CONTROL IC50” value ([2]; no added GABA (control)) was “INACTIVE”.

In the case of `CC(=O)[C@H]1CC[C@H]2[C@@H]3CC[C@H]4C[C@@H](O)CC[C@]4(C)[C@H]3CC[C@]12C` [5α-PREGNAN-3β-OL- 20-ONE], the “MAXIMAL INHIBITION” value [2] is reported as 33, the “CONTROL IC50” value ([2]; no added GABA (control)) is reported as “INACTIVE” and the IC50 [2, 12] is reported as greater than 100 µM.

In the case of `CCCC(CCC)C(=O)O` [Valproate], the “PICRO (picrotoxin) ED50” value ([3]; Swinyard & Woodhead) is listed as 387, the “MES (maximal electroshock) ED50” value [4] is listed as 272 and the “BIC (bicuculline) ED50” value ([5]; Swinyard & Woodhead) is listed as 360. The “MTZ (metrazol) ED50” value ([6]; Swinyard & Woodhead) was 149, the LD50 [7] was 1105 and the “STR (strychnine) ED50” value ([8]; Swinyard & Woodhead) was 293.

For `O=C1NC(=O)C(c2ccccc2)(c2ccccc2)N1` [Phenytoin], the “PICRO (picrotoxin) ED50” value ([3]; Swinyard & Woodhead) is given as “NP”, the “BIC (bicuculline) ED50” value ([5]; Swinyard & Woodhead) is given as “NP” and the “MTZ (metrazol) ED50” value ([6]; Swinyard & Woodhead) is given as “NP”. The LD50 [7] was 230 and the “Maximum protection (strychnine)” value ([8]; at 55-100 mg/kg) was 50%.

With `C[C@]12CCC(=O)C[C@@H]1CC[C@@H]1[C@@H]2CC[C@]2(C)[C@@H](O)CC[C@@H]12` [5α-ANDROSTAN-17β- OL-3-ONE] the “MAXIMAL INHIBITION” value [2] was 52 and the IC50 [2, 13] was greater than 100 µM.

With `CCCC(C)C1(CC)C(=O)NC(=O)NC1=O` (stereo not drawn) [Na pentobarbital] the “Total percentage of specific sites, rapidly dissociating (R)” value ([9]; (**P < 0.01 vs control), alphaxalone 300 nM, 3a-OH-DHP 20 nM) was 48 ± 6 percentage, the “Total percentage of specific sites, slowly dissociating (S)” value ([9]; (*P < 0.05 vs control), alphaxalone 300 nM, 3a-OH-DHP 20 nM) was 61 ± 6 percentage and the “k-1, rapidly dissociating component (R)” value ([9]; [35S]TBPS dissociation, alphaxalone 300 nM, 3a-OH-DHP 20 nM) was 0.158 min⁻¹. The “k-1, slowly dissociating component (S)” value ([9]; [35S]TBPS dissociation, pentobarbital 30 nM [sic], alphaxalone 300 nM, 3a-OH-DHP 20 nM) was 0.0186 min⁻¹ and the “effect on dissociation mechanism/kinetics of [35S]TBPS (in words)” value ([9]; pentobarbital 30 micromolar, alphaxalone 300 nanomolar, 5-alpha-pregnan-3-alpha-hydroxy-20-one 20 nanomolar) was “induces a biphasic dissociation mechanism”.

For `CCC1(c2ccccc2)C(=O)NC(=O)NC1=O` [Phenobarbital], the “PICRO (picrotoxin) ED50” value ([3]; Swinyard & Woodhead) is listed as 28, the “Rotorod (RR) ED50” value [10] is listed as 69 and the “MES (maximal electroshock) ED50” value [4] is listed as 22. The “BIC (bicuculline) ED50” value ([5]; Swinyard & Woodhead) was 38, the “MTZ (metrazol) ED50” value ([6]; Swinyard & Woodhead) was 13 and the LD50 [7] was 265. For the same compound, the “STR (strychnine) ED50” value ([8]; Swinyard & Woodhead) was 95.

In the case of `O=C1CN=C(c2ccccc2Cl)c2cc([N+](=O)[O-])ccc2N1` [Clonazepam], the “PICRO (picrotoxin) ED50” value ([3]; Swinyard & Woodhead) is given as 0.043, the “Rotorod (RR) ED50” value [10] is given as 0.184 and the “MES (maximal electroshock) ED50” value [4] is given as 93. The “BIC (bicuculline) ED50” value ([5]; Swinyard & Woodhead) was 0.0086, the “MTZ (metrazol) ED50” value ([6]; Swinyard & Woodhead) was 0.009 and the LD50 [7] was greater than 6000. The “STR (strychnine) ED50” value ([8]; Swinyard & Woodhead) was “NP”.

In the case of `NC(=O)CCC/N=C(\c1ccc(Cl)cc1)c1cc(F)ccc1O` [Progabide], the “PICRO (picrotoxin) ED50” value [3, 14] is given as 105, the “MES (maximal electroshock) ED50” value [4] is given as 75 and the “BIC (bicuculline) ED50” value [5, 14] is given as 30. For the same compound, the “MTZ (metrazol) ED50” value [6, 14] was 30, the LD50 [7] was 3000 and the “STR (strychnine) ED50” value [8, 14] was 75.

In the case of `NCCCC(=O)O` [GABA, gamma-aminobutyric acid], the “shift in dose-response curve for [35S]TBPS binding induced by (+)-bicuculline” value ([2]; (+)-bicuculline 0.5-3.0 micromolar, FIGS. 1A and 1B) is reported as “classical parallel shift”.

With `C[C@]12CC[C@@H](O)C[C@@H]1CC[C@@H]1[C@@H]2CC[C@]2(C)[C@@H](C(=O)CO)CC[C@@H]12` [5-alpha-pregnan-3-alpha,21-diol-20-one] the “affinity for the progesterone receptor” value [1] was “lack of affinity”.

In the case of `C[C@]12C[C@H](O)[C@H]3[C@@H](CCC4=CC(=O)CC[C@@]43C)[C@@H]1CC[C@@H]2C(=O)CO` [4-PREGNEN-11β,21- DIOL-3,20-DIONE], the “MAXIMAL INHIBITION” value [2] is reported as 21, the “CONTROL IC50” value ([2]; no added GABA (control)) is reported as “INACTIVE” and the IC50 [2, 12] is reported as greater than 100 µM.

For `C[C@]12CC[C@@H](O)C[C@@H]1CC[C@H]1[C@@H]3CC[C@H](C(=O)CO)[C@@]3(C)CC(=O)[C@@H]12` [5α-PREGNAN-3α-21- DIOL-11,20-DIONE], the IC50 [2, 13] was greater than 100 µM.

With `CC(=O)[C@H]1CC[C@H]2[C@@H]3CCC4=CC(=O)CC[C@]4(C)[C@H]3CC[C@]12C` [PROGESTERONE] the “MAXIMAL INHIBITION” value [2] was 100, the “potency/efficacy/affinity at the GBR complex (in words)” value ([2]; in vitro) was “very low potency” and the IC50 [2, 13] was greater than 100 µM. The “dose-response relationship in the treatment of PMS” value ([11]; Maddocks et al.) was “no dose-response relationship exists” and the “clinical effectiveness in PMS, PND, catamenial epilepsy” value ([11]; literature) was “not consistently effective”.

In the case of `C[C@]12CC[C@@H](O)C[C@@H]1CC[C@@H]1[C@@H]2CC[C@]2(C)[C@@H](O)CC[C@@H]12` [5α-ANDROSTAN-3α, 17β-DIOL], the “MAXIMAL INHIBITION” value [2] is reported as 100.

In the case of `CC(O)[C@H]1CC[C@H]2[C@@H]3CC[C@H]4C[C@H](O)CC[C@]4(C)[C@H]3CC[C@]12C` (stereo partly drawn) [5α-PREGNAN-3α,20- DIOL ([…]), 5α-PREGNAN-3α,20- DIOL], the “MAXIMAL INHIBITION” value [2] is reported as 52, the IC50 [2, 13] is reported as 0.359 µM and the IC50 [2, 12] is reported as 0.082 µM.

For `CC(C)CCC[C@@H](C)[C@H]1CC[C@H]2[C@@H]3CC=C4C[C@@H](O)CC[C@]4(C)[C@H]3CC[C@]12C` [CHOLESTEROL], the “MAXIMAL INHIBITION” value [2] was 0, the “+5 μM GABA IC50” value ([2]; +5 μM GABA) was “INACTIVE” and the “CONTROL IC50” value ([2]; no added GABA (control)) was “INACTIVE”.
